Experimental data published in ChEMBL document CHEMBL5465560, “Selectivity Literature for EUbOPEN Chemogenomic Library” (2024).

How the values were obtained:
[1] = target: Tyrosine-protein kinase Lck (Homo sapiens, UniProt P06239); test: Selectivity interaction (Kinase panel (literature)) EUB0001199aCl LCK; settings: at 1 µM
[2] = target: T1, Ephrin type-A receptor 6 (Homo sapiens) (UniProt Q9UF33); test: Selectivity interaction (KinomeScan (DiscoverX)) EUB0001079a EPHA6; settings: at 1 µM
T1 sequence (whole entry): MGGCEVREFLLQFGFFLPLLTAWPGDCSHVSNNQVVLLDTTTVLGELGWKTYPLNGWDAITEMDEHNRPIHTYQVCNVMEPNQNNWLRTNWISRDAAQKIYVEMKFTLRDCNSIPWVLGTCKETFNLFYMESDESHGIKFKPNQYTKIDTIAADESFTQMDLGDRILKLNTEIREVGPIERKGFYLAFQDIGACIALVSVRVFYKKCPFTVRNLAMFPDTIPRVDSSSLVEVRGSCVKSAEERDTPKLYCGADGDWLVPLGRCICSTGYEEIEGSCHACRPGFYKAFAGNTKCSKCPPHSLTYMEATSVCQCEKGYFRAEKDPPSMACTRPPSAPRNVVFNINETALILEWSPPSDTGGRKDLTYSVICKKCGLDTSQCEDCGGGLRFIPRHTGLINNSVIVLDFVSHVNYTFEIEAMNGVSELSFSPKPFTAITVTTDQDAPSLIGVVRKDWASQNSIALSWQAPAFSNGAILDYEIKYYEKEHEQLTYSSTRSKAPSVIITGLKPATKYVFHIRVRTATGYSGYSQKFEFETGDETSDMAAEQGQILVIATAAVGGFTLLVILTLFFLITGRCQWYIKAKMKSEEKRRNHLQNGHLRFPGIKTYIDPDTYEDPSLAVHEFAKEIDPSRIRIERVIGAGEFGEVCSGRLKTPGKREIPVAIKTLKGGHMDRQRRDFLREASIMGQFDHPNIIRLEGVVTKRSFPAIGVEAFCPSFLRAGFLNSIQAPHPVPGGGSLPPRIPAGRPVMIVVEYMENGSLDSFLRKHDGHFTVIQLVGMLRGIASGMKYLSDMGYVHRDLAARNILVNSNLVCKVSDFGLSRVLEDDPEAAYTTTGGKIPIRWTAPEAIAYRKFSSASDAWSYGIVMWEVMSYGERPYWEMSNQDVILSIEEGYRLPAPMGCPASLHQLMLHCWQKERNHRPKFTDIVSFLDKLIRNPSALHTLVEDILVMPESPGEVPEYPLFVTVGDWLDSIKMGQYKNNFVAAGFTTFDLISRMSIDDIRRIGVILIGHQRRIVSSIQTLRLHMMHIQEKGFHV

[3] = target: T2, Serine/threonine-protein kinase ULK3 (Homo sapiens) (UniProt Q6PHR2); test: Selectivity interaction (ActivX KiNativ screen (kinase selectivity in THP-1 cell lysates)) EUB0000639a ULK3; assay type: subcellular; settings: lysate
T2 sequence (whole entry): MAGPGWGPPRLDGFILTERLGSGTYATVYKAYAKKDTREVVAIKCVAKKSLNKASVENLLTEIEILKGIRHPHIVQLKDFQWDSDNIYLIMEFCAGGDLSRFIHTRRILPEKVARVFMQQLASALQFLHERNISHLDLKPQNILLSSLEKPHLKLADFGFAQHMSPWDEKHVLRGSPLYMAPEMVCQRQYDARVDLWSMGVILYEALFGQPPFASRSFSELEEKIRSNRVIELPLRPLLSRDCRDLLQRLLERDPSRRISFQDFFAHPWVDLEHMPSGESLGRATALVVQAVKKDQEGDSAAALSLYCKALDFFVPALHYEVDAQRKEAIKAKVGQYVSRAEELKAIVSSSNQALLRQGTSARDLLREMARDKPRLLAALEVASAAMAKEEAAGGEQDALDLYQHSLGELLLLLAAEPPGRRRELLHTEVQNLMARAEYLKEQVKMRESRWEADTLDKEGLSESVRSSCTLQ

[4] = target: T3, Peripheral plasma membrane protein CASK (Homo sapiens) (UniProt O14936); test: Selectivity interaction (KinomeScan (DiscoverX)) EUB0001619a CASK; settings: at 1 µM
T3 sequence (whole entry): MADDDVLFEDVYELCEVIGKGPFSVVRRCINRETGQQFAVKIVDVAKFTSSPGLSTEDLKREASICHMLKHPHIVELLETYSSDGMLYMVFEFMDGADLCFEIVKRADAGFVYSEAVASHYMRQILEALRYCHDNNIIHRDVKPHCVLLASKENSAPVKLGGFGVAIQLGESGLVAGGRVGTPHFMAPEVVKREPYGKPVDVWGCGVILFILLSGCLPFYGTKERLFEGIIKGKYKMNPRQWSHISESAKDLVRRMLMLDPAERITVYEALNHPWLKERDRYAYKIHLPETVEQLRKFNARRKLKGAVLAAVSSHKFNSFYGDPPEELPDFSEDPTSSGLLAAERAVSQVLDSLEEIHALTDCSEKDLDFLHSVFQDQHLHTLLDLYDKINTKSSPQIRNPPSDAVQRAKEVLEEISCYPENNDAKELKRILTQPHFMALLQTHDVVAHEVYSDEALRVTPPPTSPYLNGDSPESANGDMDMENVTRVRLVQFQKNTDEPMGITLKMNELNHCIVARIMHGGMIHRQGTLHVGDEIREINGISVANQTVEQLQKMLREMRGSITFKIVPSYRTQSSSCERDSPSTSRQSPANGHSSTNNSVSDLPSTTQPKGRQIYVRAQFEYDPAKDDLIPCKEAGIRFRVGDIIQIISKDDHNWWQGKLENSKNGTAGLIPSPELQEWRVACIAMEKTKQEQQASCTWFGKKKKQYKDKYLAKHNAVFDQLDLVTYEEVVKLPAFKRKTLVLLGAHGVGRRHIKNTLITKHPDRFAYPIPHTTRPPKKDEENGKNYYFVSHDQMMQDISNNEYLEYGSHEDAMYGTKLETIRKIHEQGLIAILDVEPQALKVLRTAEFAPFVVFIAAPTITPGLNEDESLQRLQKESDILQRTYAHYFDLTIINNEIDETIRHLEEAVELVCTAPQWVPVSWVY

[5] = target: Casein kinase II subunit alpha (Homo sapiens, UniProt P68400); test: Selectivity interaction (KinomeScan (DiscoverX)) EUB0001619a CSNK2A1; settings: at 1 µM
[6] = target: Tyrosine-protein kinase Blk (Homo sapiens) (UniProt P51451); test: Selectivity interaction (KinomeScan (DiscoverX)) EUB0000655a BLK; settings: at 10 µM
[7] = target: Serine/threonine-protein kinase PLK3 (Homo sapiens, UniProt Q9H4B4); test: Selectivity interaction (KinomeScan (DiscoverX)) EUB0000695a PLK3; settings: at 100 nM
[8] = target: Cyclin-dependent kinase 1/cyclin B (Homo sapiens) (UniProt P06493+P14635+Q8WWL7+O95067); test: Selectivity interaction (SelectScreen profiling (Invitrogen)) EUB0000607a CDK1; assay type: protein-complex assay; settings: at 2 µM
[9] = target: Mitogen-activated protein kinase 1 (Homo sapiens, UniProt P28482); test: Selectivity interaction (SelectScreen profiling (Invitrogen)) EUB0000607a MAPK1; settings: at 2 µM
Chain of Mitogen-activated protein kinase 1 (P28482 whole entry): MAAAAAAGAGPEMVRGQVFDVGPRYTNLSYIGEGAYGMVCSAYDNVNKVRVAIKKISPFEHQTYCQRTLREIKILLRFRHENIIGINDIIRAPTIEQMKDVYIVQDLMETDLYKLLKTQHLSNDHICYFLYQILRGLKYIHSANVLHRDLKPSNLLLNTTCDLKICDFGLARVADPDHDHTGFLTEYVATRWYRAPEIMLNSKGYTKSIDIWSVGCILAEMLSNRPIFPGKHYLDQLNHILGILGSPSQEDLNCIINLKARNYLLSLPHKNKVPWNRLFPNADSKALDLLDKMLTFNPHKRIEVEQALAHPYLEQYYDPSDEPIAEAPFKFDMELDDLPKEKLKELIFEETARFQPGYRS

Chain of Tyrosine-protein kinase Lck (P06239 2-509 limits assumed): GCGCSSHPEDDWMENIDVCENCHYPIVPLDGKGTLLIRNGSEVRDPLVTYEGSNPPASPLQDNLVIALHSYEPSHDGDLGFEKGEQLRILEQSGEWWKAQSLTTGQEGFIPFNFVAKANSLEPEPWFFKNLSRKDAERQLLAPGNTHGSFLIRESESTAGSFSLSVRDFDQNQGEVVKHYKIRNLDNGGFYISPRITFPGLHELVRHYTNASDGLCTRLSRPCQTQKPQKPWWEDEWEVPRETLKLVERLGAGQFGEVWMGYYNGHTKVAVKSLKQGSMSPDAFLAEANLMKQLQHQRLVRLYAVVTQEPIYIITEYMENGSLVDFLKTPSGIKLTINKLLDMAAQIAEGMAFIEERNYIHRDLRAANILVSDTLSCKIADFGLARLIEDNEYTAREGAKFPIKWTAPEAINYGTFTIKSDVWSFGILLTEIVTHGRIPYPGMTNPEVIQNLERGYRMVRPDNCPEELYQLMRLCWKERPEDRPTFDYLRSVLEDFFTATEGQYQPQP
Chain of Casein kinase II subunit alpha (P68400 whole entry, looked up): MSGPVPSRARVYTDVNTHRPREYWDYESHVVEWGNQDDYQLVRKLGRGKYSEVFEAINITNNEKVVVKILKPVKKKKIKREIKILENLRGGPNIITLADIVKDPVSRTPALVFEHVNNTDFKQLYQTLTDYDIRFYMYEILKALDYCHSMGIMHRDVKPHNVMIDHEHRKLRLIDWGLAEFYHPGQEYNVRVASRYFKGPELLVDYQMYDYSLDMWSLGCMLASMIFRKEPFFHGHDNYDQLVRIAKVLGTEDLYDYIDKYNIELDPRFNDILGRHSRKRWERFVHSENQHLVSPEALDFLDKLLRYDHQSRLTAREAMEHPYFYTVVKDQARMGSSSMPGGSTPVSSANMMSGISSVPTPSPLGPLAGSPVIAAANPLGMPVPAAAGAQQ
Chain of Serine/threonine-protein kinase PLK3 (Q9H4B4 whole entry, looked up): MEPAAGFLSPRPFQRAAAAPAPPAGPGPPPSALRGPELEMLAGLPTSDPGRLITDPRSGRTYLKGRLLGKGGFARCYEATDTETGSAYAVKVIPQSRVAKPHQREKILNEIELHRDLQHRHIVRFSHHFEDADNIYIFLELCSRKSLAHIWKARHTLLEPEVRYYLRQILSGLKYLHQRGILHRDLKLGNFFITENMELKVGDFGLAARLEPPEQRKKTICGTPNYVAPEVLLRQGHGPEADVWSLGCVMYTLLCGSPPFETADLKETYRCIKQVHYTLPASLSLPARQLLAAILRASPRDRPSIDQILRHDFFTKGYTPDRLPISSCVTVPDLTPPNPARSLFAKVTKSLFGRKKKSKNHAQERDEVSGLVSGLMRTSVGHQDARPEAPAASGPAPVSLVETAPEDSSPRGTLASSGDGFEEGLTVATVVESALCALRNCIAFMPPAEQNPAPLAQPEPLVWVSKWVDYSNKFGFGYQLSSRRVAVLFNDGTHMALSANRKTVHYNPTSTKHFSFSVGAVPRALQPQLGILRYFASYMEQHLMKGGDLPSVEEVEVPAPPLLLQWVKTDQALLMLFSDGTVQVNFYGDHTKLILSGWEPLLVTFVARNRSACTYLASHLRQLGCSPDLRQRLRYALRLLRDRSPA
Chain of Tyrosine-protein kinase Blk (Homo sapiens) (P51451 2-505 limits assumed): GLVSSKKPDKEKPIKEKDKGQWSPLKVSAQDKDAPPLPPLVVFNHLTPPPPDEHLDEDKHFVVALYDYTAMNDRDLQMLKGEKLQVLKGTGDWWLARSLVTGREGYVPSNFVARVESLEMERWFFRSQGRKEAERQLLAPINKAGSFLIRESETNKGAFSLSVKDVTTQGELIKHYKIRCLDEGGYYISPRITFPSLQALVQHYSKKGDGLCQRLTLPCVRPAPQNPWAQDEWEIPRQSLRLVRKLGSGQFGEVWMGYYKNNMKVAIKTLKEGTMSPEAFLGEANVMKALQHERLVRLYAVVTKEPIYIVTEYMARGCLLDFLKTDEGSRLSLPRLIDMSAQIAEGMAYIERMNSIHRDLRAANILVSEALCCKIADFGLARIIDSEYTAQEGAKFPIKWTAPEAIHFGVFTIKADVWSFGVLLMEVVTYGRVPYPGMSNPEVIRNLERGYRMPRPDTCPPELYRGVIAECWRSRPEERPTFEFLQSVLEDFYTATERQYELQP

Question: CN1Cc2nccc(-c3cn(C)nc3-c3ccc(F)cc3)c2C1=O was tested. Which % of inhibition [1] did it give?
Answer: 3%

Question: Nc1cnc(N2CCc3cc(S(=O)(=O)Nc4c(F)cc(Cl)cc4F)cc(N4CCCC4=O)c32)nc1 [TP-020n] was tested. Which % of control [2] did it give?
Answer: 98%

Question: With CC[C@@H]1[C@H](F)C(=O)N[C@@H]1COc1nccc2cc(C(N)=O)c(OC)cc12 [ZIMLOVISERTIB] as the compound, how does the % of inhibition ([3]; at 0.01 µM) read?
Answer: 11.3%

Question: And the % of inhibition ([3]; at 0.04 µM)?
Answer: 2.1%

Question: And the % of inhibition ([3]; at 0.2 µM)?
Answer: 3.4%

Question: What about the % of inhibition ([3]; at 1 µM) of the same compound?
Answer: 5.1%

Question: What about the % of inhibition ([3]; at 5 µM) of the same compound?
Answer: -3.4%

Question: N#Cc1cccc(-c2c[nH]c3ncnc(N4CCOCC4)c23)c1 was tested. Which % of control [4] did it give?
Answer: 66%

Question: And the % of control [5]?
Answer: 75%

Question: How did the % of control [6] turn out when CN(C)CCOc1ccc(-c2nc(-c3ccncc3)c(-c3ccc4c(c3)CC/C4=N\O)[nH]2)cc1 was run?
Answer: 59%

Question: How did the % of control [7] turn out when Cc1cc(F)c(C(=O)Nc2cccc(-c3nncn3C(C)C)n2)cc1-n1cnc(C2CC2)c1 was run?
Answer: 100%

Question: What does the source list for CNC(=O)Nc1ccc(-c2nc(N3CC4CCC(C3)O4)c3cnn(C4CCC5(CC4)OCCO5)c3n2)cc1?
Answer: % of inhibition [8]: 6%; % of inhibition [9]: 0%
